These are literature values, as cited in patent US8883207B2, “Controlled release carvedilol formulation” (TSH Biopharm Corporation Ltd., priority 2009, dated 2014).

Each structure is given as a SMILES string. Where two headings read alike, the source gives them in different places.

Assay in data set [1]: not given
This is another data set of the same source.

`COc1ccccc1OCCNCC(O)COc1cccc2[nH]c3ccccc3c12` (racemic) [carvedilol, ((±)1-(carbazol-4-yloxy-3-[[2-(o-methoxyphenoxy)ethyl]-amino]-2-propanol)]: the relative absorption is listed as 7% (colon), 28% (ileum) and 56% (jejunum). For the same compound, the “solubility in gastric fluid” value in data set [1] (gastric fluid (simulated, TS, pH 1.1)) was “low solubility”. Moreover, the “solubility in intestinal fluid” value in data set [1] (intestinal fluid (simulated, TS without pancreatin, pH 7.5)) is on record as “low solubility”. The solubility in water result in data set [1] (water) was “low solubility”.
